Reference: ChEMBL document CHEMBL5352474, “Synthesis and in vitro antileishmanial activity of alkylene-linked nitrofurantoin-triazole hybrids” (Eur J Med Chem, 2023)

Legend:
[1] = test system: Leishmania donovani; assay: Antileishmanial activity against Leishmania donovani 9515 amastigote infected in human THP-1 cells assessed as static activity by measuring inhibition of parasite growth incubated for 72 hrs by resazurin dye based assay; format: functional, organism-based; conditions: Leishmania donovani, 9515, THP-1, 72 h
[2] = test system: Leishmania donovani; assay: Leishmanicidal activity against Leishmania donovani 9515 amastigote infected in human THP-1 cells incubated for 72 hrs by resazurin dye based analysis; format: functional, organism-based; conditions: Leishmania donovani, 9515, THP-1, 72 h
[3] = test system: Leishmania major; assay: Leishmanicidal activity against Leishmania major IR-173 amastigote infected in human THP-1 cells incubated for 72 hrs by resazurin dye based analysis; format: functional, organism-based; conditions: IR-173, THP-1, 72 h
[4] = test system: Leishmania major; assay: Antileishmanial activity against Leishmania major IR-173 promastigotes assessed as inhibition of parasite growth incubated for 48 hrs by resazurin dye based assay; format: functional, organism-based; conditions: IR-173, 48 h
[5] = test system: Leishmania donovani; assay: Antileishmanial activity against Leishmania donovani 9515 promastigotes assessed as inhibition of parasite growth incubated for 48 hrs by resazurin dye based assay; format: functional, organism-based; conditions: Leishmania donovani, 9515, 48 h
[6] = test system: Leishmania major; assay: Antileishmanial activity against Leishmania major IR-173 amastigote infected in human THP-1 cells assessed as static activity by measuring inhibition of parasite growth incubated for 72 hrs by resazurin dye based assay; format: functional, organism-based; conditions: IR-173, THP-1, 72 h
[7] = Selectivity index, ratio of IC50 for cytotoxicity against HEK293 cells to IC50 for antileishmanial activity against Leishmania major IR-173 promastigotes; format: toxicity, cell-based; conditions: human, read-out: Ratio IC50
[8] = Cytotoxicity against HEK293 cells assessed as inhibition of cell growth incubated for 48 hrs by resazurin dye based assay; format: toxicity; conditions: human
[9] = Selectivity index, ratio of IC50 for cytotoxicity against HEK293 cells to IC50 for antileishmanial activity against Leishmania donovani 9515 promastigotes; format: toxicity, cell-based; conditions: human, read-out: Ratio IC50

SMILES: O=C1CN(/N=C/c2ccc([N+](=O)[O-])o2)C(=O)N1CCCCCCn1cc(-c2ccc(F)cc2)nn1
- IC50 [1]: > 10 µM
- IC50 [2]: > 10 µM
- IC50 [3]: > 10 µM
- IC50 [4]: 0.22 µM
- IC50 [5]: > 10 µM
- IC50 [6]: > 10 µM
- selectivity ratio [7]: 40
- IC50 at 48 h [8]: 8.97 µM

SMILES: CCCCCc1ccc(-c2cn(CCCCCCN3C(=O)CN(/N=C/c4ccc([N+](=O)[O-])o4)C3=O)nn2)cc1
- IC50 [1]: > 10 µM
- IC50 [2]: > 10 µM
- IC50 [3]: > 10 µM
- IC50 [4]: 2.19 µM
- IC50 [5]: 0.05 µM
- IC50 [6]: > 10 µM

SMILES: COc1ccc(-c2cn(CCCCCN3C(=O)CN(/N=C/c4ccc([N+](=O)[O-])o4)C3=O)nn2)cc1
- IC50 [1]: > 10 µM
- IC50 [2]: > 10 µM
- IC50 [3]: > 10 µM
- IC50 [4]: 0.5 µM
- IC50 [5]: > 10 µM
- IC50 [6]: > 10 µM
- selectivity ratio [7]: 45
- IC50 at 48 h [8]: 22.7 µM

SMILES: O=C1CN(/N=C/c2ccc([N+](=O)[O-])o2)C(=O)N1CCCCCCn1cc(CSc2ccccc2)nn1
- IC50 [1]: > 10 µM
- IC50 [2]: > 10 µM
- IC50 [3]: > 10 µM
- IC50 [4]: 2.75 µM
- selectivity ratio [9]: 327
- IC50 [5]: 0.06 µM
- IC50 [6]: > 10 µM
- selectivity ratio [7]: 7
- IC50 at 48 h [8]: 19.6 µM

SMILES: O=C1CN(/N=C/c2ccc([N+](=O)[O-])o2)C(=O)N1CCCCCn1cc(-c2cc(C(F)(F)F)cc(C(F)(F)F)c2)nn1
- IC50 [1]: > 10 µM
- IC50 [2]: > 10 µM
- IC50 [3]: > 10 µM
- IC50 [4]: > 10 µM
- IC50 [5]: > 10 µM
- IC50 [6]: > 10 µM
- IC50 at 48 h [8]: 17.7 µM

SMILES: CCCCCCc1cn(CCCCCCN2C(=O)CN(/N=C/c3ccc([N+](=O)[O-])o3)C2=O)nn1
- IC50 [1]: > 10 µM
- IC50 [2]: > 10 µM
- IC50 [3]: > 10 µM
- IC50 [4]: 5.3 µM
- selectivity ratio [9]: 174
- IC50 [5]: 0.48 µM
- IC50 [6]: > 10 µM
- selectivity ratio [7]: 16
- IC50 at 48 h [8]: 83.4 µM

SMILES: CCCCCCc1cn(CCCCCN2C(=O)CN(/N=C/c3ccc([N+](=O)[O-])o3)C2=O)nn1
- IC50 [1]: > 10 µM
- IC50 [2]: > 10 µM
- IC50 [3]: > 10 µM
- IC50 [4]: 1.5 µM
- selectivity ratio [9]: 108
- IC50 [5]: 0.61 µM
- IC50 [6]: > 10 µM
- selectivity ratio [7]: 44
- IC50 at 48 h [8]: 65.9 µM

SMILES: O=C1CN(/N=C/c2ccc([N+](=O)[O-])o2)C(=O)N1CCCn1cc(-c2ccc(F)cc2)nn1
- IC50 [1]: > 10 µM
- IC50 [2]: > 10 µM
- IC50 [3]: > 10 µM
- IC50 [4]: 0.74 µM
- IC50 [5]: > 10 µM
- IC50 [6]: > 10 µM
- selectivity ratio [7]: > 135
- IC50 at 48 h [8]: > 100 µM

SMILES: O=C1CN(/N=C/c2ccc([N+](=O)[O-])o2)C(=O)N1CCCn1cc(-c2cc(C(F)(F)F)cc(C(F)(F)F)c2)nn1
- IC50 [1]: > 10 µM
- IC50 [2]: > 10 µM
- IC50 [3]: > 10 µM
- IC50 [4]: 0.67 µM
- selectivity ratio [9]: 26
- IC50 [5]: 1.2 µM
- IC50 [6]: > 10 µM
- selectivity ratio [7]: 46
- IC50 at 48 h [8]: 30.6 µM

SMILES: Cc1ccc(-c2cn(CCCCCN3C(=O)CN(/N=C/c4ccc([N+](=O)[O-])o4)C3=O)nn2)cc1
- IC50 [1]: > 10 µM
- IC50 [2]: > 10 µM
- IC50 [3]: > 10 µM
- IC50 [4]: 1.86 µM
- IC50 [5]: > 10 µM
- IC50 [6]: > 10 µM
- selectivity ratio [7]: 8
- IC50 at 48 h [8]: 13.9 µM

SMILES: CCCCCCCCc1cn(CCCCCN2C(=O)CN(/N=C/c3ccc([N+](=O)[O-])o3)C2=O)nn1
- IC50 [1]: > 10 µM
- IC50 [2]: > 10 µM
- IC50 [3]: > 10 µM
- IC50 [4]: > 10 µM
- IC50 [5]: > 10 µM
- IC50 [6]: > 10 µM
- IC50 at 48 h [8]: 28.6 µM

SMILES: CCCCCc1ccc(-c2cn(CCCCCN3C(=O)CN(/N=C/c4ccc([N+](=O)[O-])o4)C3=O)nn2)cc1
- IC50 [1]: > 10 µM
- IC50 [2]: > 10 µM
- IC50 [3]: > 10 µM
- IC50 [4]: > 10 µM
- IC50 [5]: > 10 µM
- IC50 [6]: > 10 µM
- IC50 at 48 h [8]: 9.73 µM

SMILES: O=C1CN(/N=C/c2ccc([N+](=O)[O-])o2)C(=O)N1CCCCCn1cc(-c2ccc(F)cc2)nn1
- IC50 [1]: > 10 µM
- IC50 [2]: > 10 µM
- IC50 [3]: > 10 µM
- IC50 [4]: 0.98 µM
- IC50 [5]: > 10 µM
- IC50 [6]: > 10 µM
- selectivity ratio [7]: 40
- IC50 at 48 h [8]: 37.2 µM

SMILES: O=C1CN(/N=C/c2ccc([N+](=O)[O-])o2)C(=O)N1CCCCCn1cc(CSc2ccccc2)nn1
- IC50 [1]: > 10 µM
- IC50 [2]: > 10 µM
- IC50 [3]: > 10 µM
- IC50 [4]: 1.7 µM
- selectivity ratio [9]: 8790
- IC50 [5]: 0.01 µM
- IC50 [6]: > 10 µM
- selectivity ratio [7]: 52
- IC50 at 48 h [8]: 87.9 µM

SMILES: O=C1CN(/N=C/c2ccc([N+](=O)[O-])o2)C(=O)N1CCCCCCn1cc(-c2cc(C(F)(F)F)cc(C(F)(F)F)c2)nn1
- IC50 [1]: > 10 µM
- IC50 [2]: > 10 µM
- IC50 [3]: > 10 µM
- IC50 [4]: 0.8 µM
- IC50 [5]: 5.35 µM
- IC50 [6]: > 10 µM

SMILES: Cc1ccc(-c2cn(CCCCCCN3C(=O)CN(/N=C/c4ccc([N+](=O)[O-])o4)C3=O)nn2)cc1
- IC50 [1]: > 10 µM
- IC50 [2]: > 10 µM
- IC50 [3]: > 10 µM
- IC50 [4]: 0.66 µM
- selectivity ratio [9]: 32
- IC50 [5]: 0.98 µM
- IC50 [6]: > 10 µM
- selectivity ratio [7]: 47
- IC50 at 48 h [8]: 31.1 µM

SMILES: CCCCCc1cn(CCCCCCN2C(=O)CN(/N=C/c3ccc([N+](=O)[O-])o3)C2=O)nn1
- IC50 [1]: > 10 µM
- IC50 [2]: > 10 µM
- IC50 [3]: > 10 µM
- IC50 [4]: 0.27 µM
- IC50 [5]: > 10 µM
- IC50 [6]: > 10 µM
- selectivity ratio [7]: 57
- IC50 at 48 h [8]: 15.5 µM

SMILES: CCCCc1cn(CCCCCCN2C(=O)CN(/N=C/c3ccc([N+](=O)[O-])o3)C2=O)nn1
- IC50 [1]: > 10 µM
- IC50 [2]: > 10 µM
- IC50 [3]: > 10 µM
- IC50 [4]: 1.19 µM
- IC50 [5]: > 10 µM
- IC50 [6]: > 10 µM
- selectivity ratio [7]: 37
- IC50 at 48 h [8]: 44.5 µM

SMILES: CCCCCCCCc1cn(CCCCCCN2C(=O)CN(/N=C/c3ccc([N+](=O)[O-])o3)C2=O)nn1
- IC50 [1]: > 10 µM
- IC50 [2]: > 10 µM
- IC50 [3]: > 10 µM
- IC50 [4]: 2.62 µM
- selectivity ratio [9]: 457
- IC50 [5]: 0.11 µM
- IC50 [6]: > 10 µM
- selectivity ratio [7]: 19
- IC50 at 48 h [8]: 50.3 µM

SMILES: CCCCCCCCc1cn(CCCN2C(=O)CN(/N=C/c3ccc([N+](=O)[O-])o3)C2=O)nn1
- IC50 [1]: > 10 µM
- IC50 [2]: > 10 µM
- IC50 [3]: > 10 µM
- IC50 [4]: 0.73 µM
- IC50 [5]: > 10 µM
- IC50 [6]: > 10 µM
- selectivity ratio [7]: 16
- IC50 at 48 h [8]: 11.5 µM

SMILES: CCCCCc1ccc(-c2cn(CCCN3C(=O)CN(/N=C/c4ccc([N+](=O)[O-])o4)C3=O)nn2)cc1
- IC50 [1]: > 10 µM
- IC50 [2]: > 10 µM
- IC50 [3]: > 10 µM
- IC50 [4]: > 10 µM
- IC50 [5]: > 10 µM
- IC50 [6]: > 10 µM
- IC50 at 48 h [8]: 79.8 µM

SMILES: C[C@@H]1[C@H](O)[C@@H](C)/C=C/C=C/C=C/C=C/C=C/C=C/C=C/[C@H](O[C@@H]2O[C@H](C)[C@@H](O)[C@H](N)[C@@H]2O)C[C@@H]2O[C@](O)(C[C@@H](O)C[C@@H](O)[C@H](O)CC[C@@H](O)C[C@@H](O)CC(=O)O[C@H]1C)C[C@H](O)[C@H]2C(=O)O [AMPHOTERICIN B]
- IC50 [6]: 0.03 µM

SMILES: CC[C@H]1CN2CCc3cc(OC)c(OC)cc3[C@@H]2C[C@@H]1C[C@H]1NCCc2cc(OC)c(OC)cc21 [EMETINE]
- IC50 at 48 h [8]: 0.01 µM
